Data on 3 compounds can be found in patent US11865506B2, “Pyraclostrobin microcapsule based on sodium alginate and preparation method” (ANHUI AGRICULTURAL UNIVERSITY, priority 2022, dated 2024).

Converted amounts (≈) assume the structure as drawn. Read-outs that look alike come from different tables or passages of the source.

For data set [1] the following is noted: organic solvent; cited from earlier work.
A short description of data set [2]: Cold and hot storage stability. The conditions noted are these: for Stability / decomposition rate on cold storage: stored at 4° C. and −20° C. In kind it is physicochemical. The text has this:
(§1) The cold storage stability, hot storage stability, and photostability are experimented respectively.

Data set [3] relates to Fusarium pseudograminearum. Briefly: microbe, parasite or virus in culture. In kind it is cell-based.
Protocol: By mycelium growth rate method, the fungicidal activity of pyraclostrobin original drug and the prepared pyraclostrobin SA microcapsules against Fusarium pseudograminearum is determined, and the release rule of the microcapsules in the culture medium is determined.
Inclined experiment tube storage method: inoculate the strain of Fusarium pseudograminearum on a PDA plate for activation treatment, place the plate in a constant temperature incubator at 25° C. after sealing, and incubate for 3 days. Pick out the edge bacteria, transfer to a PDA slant experiment tube, and cultivate at a constant temperature at 25° C. until the colonies cover the surface of the slant, then put the experiment tube into a 4° C. refrigerator for storage until use. […]
Activate the Fusarium pseudograminearum on a drug-free PDA plate in advance, after culturing at 25° C. for 3 days, beat the fungus cake along the edge of the colony, pick the fungus cake with an inoculation needle every 0, 4, 8, 12, and 16 days and transfer it reversely to the center of the drug-containing medium; seal and store the culture dish, and place in a constant temperature incubator at 25° C. for cultivation. After each cultivation for 3 days, the diameter of the colony is measured by the cross method, and the average value is used to calculate the antibacterial rate as follows. […]
Data set [4] is described as follows: Photostability under ultraviolet light. In kind it is physicochemical.
Text: as §1
Determination of the active ingredient residual concentration of the original drug and microcapsules under the same ultraviolet light conditions, the results are shown in Table 15.

For data set [5] the following is noted: 25° C., cited from earlier work.

For `CC(C)=O` [Acetone], the Toxicity entry in data set [1] was “Low”.

With `CCOC(C)=O` [Ethyl acetate], the Toxicity entry in data set [1] is reported as “Low”.

What is called EC50 is the concentration needed to bring the measured effect to its halfway point. A higher EC50 goes with weaker potency. The term half-life denotes how long it takes for the measured level to halve. For `COC(=O)N(OC)c1ccccc1COc1ccn(-c2ccc(Cl)cc2)n1` [Original drug, pyraclostrobin], the Decomposition rate turned out to be 2.2% in data set [2] (storage at 25° C. for 30 days) and 40.25% in data set [2] (storage at 54° C. for 30 days). For the same compound, the “Stability / decomposition rate on cold storage” value in data set [2] was “better stability”; in data set [2] (listed as pyraclostrobin original drug) it was “extremely low”. In data set [3], this compound displayed an EC50 of 0.097 µg/mL (≈ 0.25 µM). The compound further had a Photolysis rate constant in data set [4] (Ct = C0 × e^−kt) of 0.03. Also, the “Residual concentration of the active ingredient” value in data set [4] (final time of 60 minutes) amounted to 1.384 µg/mL. The compound further returned a Photolysis half life in data set [4] (first-level kinetic equation) of 21.01 min. Moreover, the half-life at 9.986 μg/mL in data set [4] (first-level kinetic equation, read-out: Photolysis half life) amounted to 21 min. Besides, the “Solubility to original drug” value is ≥65 g/100 mL in data set [5] (in acetone), ≥10 g/100 mL in data set [5] (in ethanol), ≥65 g/100 mL in data set [5] (in ethyl acetate) and ≥10 g/100 mL in data set [5] (in methanol).
